In PubChem BioAssay (NCI):
≈ marks a conversion by molar mass, not a printed value.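 48-hour exposure; five concentrations; linearly interpolated endpoints. Abbreviation: GI50, concentration required for 50% inhibition of growth. TGI denotes the concentration required for complete inhibition of growth.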

Tests used:
Test in all cases: NCI anticancer screen, dose series, 48 h
NCI-H226 lung = system: NCI-H226 lung
K-562 leukemia = system: K-562 leukemia
OVCAR-3 ovarian = system: OVCAR-3 ovarian
OVCAR-8 ovarian = system: OVCAR-8 ovarian
CCRF-CEM leukemia = system: CCRF-CEM leukemia
SF-539 CNS = system: SF-539 CNS
UACC-62 melanoma = system: UACC-62 melanoma
HCT-15 colon = system: HCT-15 colon
NCI-H460 lung = system: NCI-H460 lung
SK-MEL-2 melanoma = system: SK-MEL-2 melanoma

| SMILES | TGI (NCI-H226 lung) | TGI (K-562 leukemia) | TGI (OVCAR-3 ovarian) | TGI (OVCAR-8 ovarian) | TGI (CCRF-CEM leukemia) | TGI (SF-539 CNS) | TGI (UACC-62 melanoma) | TGI (HCT-15 colon) | TGI (NCI-H460 lung) | TGI (SK-MEL-2 melanoma) | GI50 (SF-539 CNS) | GI50 (SK-MEL-2 melanoma) | GI50 (K-562 leukemia) | GI50 (OVCAR-3 ovarian) | GI50 (OVCAR-8 ovarian) | GI50 (CCRF-CEM leukemia) | GI50 (UACC-62 melanoma) | GI50 (HCT-15 colon) | GI50 (NCI-H460 lung) |
| --- | --- | --- | --- | --- | --- | --- | --- | --- | --- | --- | --- | --- | --- | --- | --- | --- | --- | --- | --- |
| COc1cc(C(C)O)c(S(=O)(=O)CC(C)O)nn1 (configuration not stated) | > 100 µM | > 100 µM | > 100 µM | > 100 µM | > 100 µM | > 100 µM | > 100 µM | > 100 µM | > 100 µM | – | – | – | – | – | – | – | – | – | – |
| Cc1c2ccncc2cc2c1[nH]c1ccccc12 | 16.2 µM | 6.01 µM | 25.8 µM | 16.2 µM | 15 µM | 5.17 µM | 20.7 µM | 28.1 µM | 5.77 µM | 23.2 µM | – | – | – | – | – | – | – | – | – |
| CC(=O)OCC1OC(n2cc(F)c(=O)[nH]c2=O)C(NC(=O)OCc2ccccc2)C(OC(C)=O)C1OC(C)=O (configuration not stated) | > 100 µM | > 100 µM | > 100 µM | > 100 µM | > 100 µM | > 100 µM | > 100 µM | > 100 µM | > 100 µM | > 100 µM | – | – | – | – | – | – | – | – | – |
| O=C(N/N=C/c1cc(Cl)cc(Cl)c1[O-])c1ccccc1O.O=C(N/N=C/c1cc(Cl)cc(Cl)c1[O-])c1ccccc1O.[Co+2] | 4.1 µM | – | 0.969 µM | 11.6 µM | – | 5.68 µM | 3.43 µM | 13.8 µM | 11.1 µM | 3.74 µM | 0.486 µM | 0.37 µM | – | – | – | – | – | – | – |
| CCP(=O)(CC)C(Cl)Cl | > 100 µM | > 100 µM | > 100 µM | > 100 µM | > 100 µM | – | – | > 100 µM | > 100 µM | > 100 µM | – | – | – | – | – | – | – | – | – |
| O=C1CC2CC3OC3[C@H]3c4cc5c(cc4C(=O)N1C23)OCO5 (some centres not stated) | > 100 µM | > 100 µM | > 100 µM | > 100 µM | > 100 µM | > 100 µM | > 100 µM | > 100 µM | > 100 µM | > 100 µM | – | – | – | – | – | – | – | – | – |
| Nc1[nH]nc(Nc2ccc(Cl)cc2)c1P(=O)(c1ccccc1)c1ccccc1 | 50.2 µM | > 100 µM | 41.5 µM | 46.4 µM | 86.1 µM | 42.6 µM | 56.4 µM | 98.4 µM | > 100 µM | 43.1 µM | – | – | – | – | – | – | – | – | – |
| CC(=O)c1c(C)nc(SSc2nc(C)c(C(C)=O)c(-c3ccc(Cl)cc3)c2C#N)c(C#N)c1-c1ccc(Cl)cc1 | – | > 150 µg/mL | > 150 µg/mL | > 150 µg/mL | > 150 µg/mL | > 150 µg/mL | > 150 µg/mL | > 150 µg/mL | > 150 µg/mL | – | 47.7 µg/mL | – | 60.6 µg/mL (≈ 100 µM) | 59.9 µg/mL (≈ 99.2 µM) | 79.2 µg/mL (≈ 131 µM) | > 150 µg/mL | 29 µg/mL (≈ 48 µM) | > 150 µg/mL | 136 µg/mL (≈ 225 µM) |
| CC(=O)Nc1ccc(C(=O)NN2C(=O)C(Cl)/C2=C/c2ccco2)cc1 (configuration not stated) | > 100 µM | > 100 µM | > 100 µM | > 100 µM | > 100 µM | > 100 µM | > 100 µM | – | > 100 µM | > 100 µM | – | – | – | – | – | – | – | – | – |
